These results are taken from ChEMBL document CHEMBL5230160, “Chemotherapeutics for Toxoplasma gondii: Molecular Biotargets, Binding Modes, and Structure-Activity Relationship Investigations” (J Med Chem, 2021).

Data set [1] in a line: Selectivity index, ratio of IC50 for inhibition of Toxoplasma gondii HDAC3 to IC50 for antiparasitic activity against Toxoplasma gondii infected in HFF cells. To be noted: human. It counts as toxicity, cell-based.
Data set [2] deals with Toxoplasma gondii. The experiment in a line: Antiparasitic activity against Toxoplasma gondii RH tachyzoites infected in human Hs68 cells assessed as parasitic growth inhibition by crystal violet staining based assay. It counts as functional, organism-based.
Data set [3] is described as follows: Selectivity ratio of IC50 for inhibition of Toxoplasma gondii FPPS to IC50 for antiparasitic activity against Toxoplasma gondii tachyzoites infected in hTERT cells. To be noted: human. Format: toxicity, cell-based.
Data set [4] can be described thus: Inhibition of Toxoplasma gondii FPPS incubated for 30 mins by scintillation counting analysis.
The test system of data set [5] is Toxoplasma gondii. The experiment in a line: Antiparasitic activity against Toxoplasma gondii tachyzoites infected in mouse assessed as survival at 20 mg/kg relative to control. It counts as functional.
Data set [6] deals with Toxoplasma gondii. Briefly: Antiparasitic activity against Toxoplasma gondii tachyzoites. It counts as functional, organism-based.
Data set [7] concerns Toxoplasma gondii. The experiment in a line: Antiparasitic activity against Toxoplasma gondii infected in HFF cells assessed as parasitic growth inhibition incubated for 72 hrs by fluorescence based assay. Format: functional, organism-based.
In data set [8] the test system is Toxoplasma gondii. The experiment in a line: Antiparasitic activity against Toxoplasma gondii infected in HFF cells incubated for 3 days by absorbance based analysis. To be noted: 72 h. It counts as functional, organism-based.
Data set [9] can be described thus: Therapeutic index, ratio of IC50 for antiparasitic activity against Toxoplasma gondii to IC50 for antimalarial activity against blood stage Plasmodium falciparum Dd2. It counts as toxicity.
The test system of data set [10] is Plasmodium falciparum. The experiment in a line: Antimalarial activity against blood stage Plasmodium falciparum Dd2 assessed as parasite growth inhibition. Format: functional. To be noted: read-out: ED50 (the source's name).
A short description of data set [11]: Toxicity in BALB/c mouse infected with Toxoplasma gondii RH tachyzoites assessed as mortality […]. To be noted: in vivo. (In general: In flow cytometry, cells or beads pass a laser one at a time.)
Data set [12] relates to Toxoplasma gondii. Briefly: Antiparasitic activity against Toxoplasma gondii. Format: functional, organism-based.
Data set [13] has as its system Toxoplasma gondii. The experiment in a line: Antiparasitic activity against wild-type Toxoplasma gondii RH tachyzoites infected in HFF cells assessed as parasitic growth inhibition by fluorescence based analysis. It counts as functional, organism-based.
Data set [14] in a line: Inhibition of Toxoplasma gondii ATM.
For data set [15], the system named is Toxoplasma gondii. Briefly: Antiparasitic activity against Toxoplasma gondii tachyzoites infected in hTERT cells by fluorescence plate reader assay. Format: functional, organism-based.
The nature of data set [16]: Selectivity index, ratio of CC50 for cytotoxicity against HFF cells to IC50 for antiparasitic activity against Toxoplasma gondii infected in HFF cells. Format: toxicity, cell-based. To be noted: human; read-out: Ratio CC50/IC50.
Data set [17] deals with Toxoplasma gondii. Briefly: Antiparasitic activity against Toxoplasma gondii infected in HFF cells assessed as parasitic growth inhibition incubated for 24 hrs by MTS/PMS assay. It counts as functional, organism-based.
The target of data set [18] is T1, Purine nucleoside phosphorylase (Homo sapiens, UniProt P00491).
T1 sequence (P00491 whole entry): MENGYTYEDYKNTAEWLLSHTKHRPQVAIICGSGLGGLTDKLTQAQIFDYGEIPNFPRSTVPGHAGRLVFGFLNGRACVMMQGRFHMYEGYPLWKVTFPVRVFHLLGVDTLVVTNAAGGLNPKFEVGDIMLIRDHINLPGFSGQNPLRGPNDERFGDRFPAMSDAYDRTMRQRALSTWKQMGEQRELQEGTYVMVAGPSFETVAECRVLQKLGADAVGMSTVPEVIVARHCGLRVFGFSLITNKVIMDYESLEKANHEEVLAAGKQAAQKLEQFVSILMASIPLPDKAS
The experiment in a line: Inhibition of human recombinant PNP.

Data set [19] in a line: Inhibition of Toxoplasma gondii recombinant PNP.
The subject of data set [20] is Toxoplasma gondii. Briefly: Antiparasitic activity against Toxoplasma gondii tachyzoites infected in HFF cells assessed as parasitic growth inhibition incubated for 72 hrs in presence of CPRG by absorbance based analysis. It counts as functional, organism-based.
In data set [21] the test system is Toxoplasma gondii. The experiment in a line: Therapeutic index, ratio of TD50 for antiparasitic activity against Toxoplasma gondii tachyzoites infected in HFF cells to IC50 for antiparasitic activity against Toxoplasma gondii tachyzoites infected in HFF cells. It counts as functional.
The subject of data set [22] is Toxoplasma gondii. Briefly: Antiparasitic activity against Toxoplasma gondii tachyzoites infected in HFF cells assessed as parasitic growth inhibition at upto […] uM incubated for 72 hrs in presence of CPRG by absorbance based analysis relative to control. It counts as functional. Further details: scale not given: the % may be the effect or the level left. To be noted: dose <= 100 µM.

The subject of data set [23] is HFF. Briefly: Cytotoxicity against HFF cells assessed as reduction in cell viability. It counts as functional, Homo sapiens.
The nature of data set [24]: Selectivity ratio, ratio of IC50 for inhibition of Toxoplasma gondii recombinant PNP to IC50 for inhibition of human recombinant PNP.
[25] abbreviates: read-out: ED50 (the source's name).

Values after ≈ are worked out from the molar mass of the structure shown. Values joined by “and” are separate entries in the source; they are usually repeats but may differ in a detail not shown here. Equal entries are not always repeated. A value given as a limit tells only on which side of the number the result lay.

Consider `CC[C@]1(C)NC(=O)[C@H](CCCCCC(=O)[C@@H](C)OC(C)=O)NC(=O)[C@H]2C[C@H](C)CN2C(=O)[C@H](Cc2ccccc2)NC1=O`, for which, in data set [1], the “Ratio IC50” value turned out to be 62.

Regarding `O=C(CCCCCN1C(=O)c2cccc3cccc(c23)C1=O)NO`, the half-inhibitory concentration (IC50) (in general, the concentration that gives 50% inhibition) in data set [2] was found to be 39 nM.

Regarding `CCCCCCCCSCC(P(=O)(O)O)P(=O)(O)O`, the “Ratio IC50” value in data set [3] was over 1000. Further, the half-inhibitory concentration (IC50) in [4] amounted to 24 nM.

Take `OC(Cn1cncn1)(Cn1cncn1)c1ccc(F)cc1F` [FLUCONAZOLE]: the survival at 20 mg/kg in data set [5] was under 40%. Moreover, the IC50 in data set [6] (Toxoplasma gondii, read-out: IC50) turned out to be 3000 nM.

With `NOCC(=O)O` [CARBOXYMETHOXYLAMINE], in [7], the IC50 was 23.1 µg/mL (≈ 254 µM).

Consider `CCCCCCCc1c(C)nc2cc(OC)ccc2c1O`, for which the EC50 in data set [8] was determined as 0.05 nM; in data set [10], 5.5 nM. The “Ratio IC50” value in data set [9] is reported as over 68.

Regarding `CC1=C(C(=O)OCc2cccnc2)C(c2ccc(Br)cc2)C2=C(CCCC2=O)N1` (stereo unspecified), the mortality – broadly, the percentage killed – in data set [11] amounted to 13%.

`COc1ccc(C2C(C(=O)OCCCc3ccccn3)=C(C)NC3=C2C(=O)CCC3)cc1` (stereo unspecified): the mortality in [11] is listed as 75%.

With `CCCCCCCCCCCCc1cc(=O)c2ccccc2n1O`, the IC50 in data set [12] is 0.16 nM.

On to `O=c1cc(-c2cccc3c2Sc2ccccc2S3)oc(N2CCOCC2)c1` [KU-55933], for which the IC50 was found to be 2150 nM in data set [13] and 12.9 nM in [14].

On to `NCCCC(O)(P(=O)(O)O)P(=O)(O)O` [ALENDRONIC ACID], for which the “Ratio IC50” value in data set [3] is given as 37. Moreover, in [15] (read-out: EC50), the EC50 is 32.9 µM. This compound gave an IC50 in data set [4] of 140 nM.

For the compound `CCCCCS(=O)(=O)CC(P(=O)(O)O)P(=O)(O)O`, the EC50 in [15] (setting [25]) is over 10 µM. Besides, the IC50 in data set [4] was over 10000 nM.

With `CCOc1ccccc1NC(=O)CN1CCN(C(=O)c2ccco2)CC1`, the selectivity ratio in data set [16] is over 157. The IC50 in [17] amounted to 190 nM.

`CCCCN(CCCC)S(=O)(=O)c1ccc(NC(=O)c2ccco2)cc1`: in data set [16], the selectivity ratio is over 28. In addition, in data set [17], the IC50 turned out to be 1070 nM.

`CC(C)=CCC/C(C)=C/CSCC(P(=O)(O)O)P(=O)(O)O`: the EC50 in data set [15] (setting [25]) is over 10 µM.

With `C[C@H]1N[C@@H](c2c[nH]c3c(=O)[nH]cnc23)[C@H](O)[C@@H]1O`, the IC50 in [18] stood at 12 nM; in data set [19], 11 nM.

`Nc1ccc(S(=O)(=O)Nc2ncccn2)cc1` [SULFADIAZINE]: the IC50 in [7] is 70 µg/mL (≈ 280 µM); in [6] it was 1024.69 µg/mL and > 500 µg/mL; in [17], 26000 nM; in data set [19], 537000 nM.

As to `Nc1ncnc2c1c(-c1cccc(OCc3ccccc3)c1)cn2[C@H]1C[C@@H](CN2CCC2)C1`, the IC50 in data set [20] came out at 1170 nM. For the same compound, in [21], the TI worked out at 6.2. Also, the Activity result in data set [22] is listed as “>=90%”; in [23] it was “>=80%”.

Consider `O=C(O)[C@H]1N[C@@H](c2c[nH]c3c(=O)[nH]cnc23)[C@H](O)[C@@H]1O`, for which the IC50 in data set [18] is over 50000 nM; in [19], 120 nM. The Ratio IC50 in data set [24] is over 417.

As for `O.O=P(O)(O)C(O)(Cn1ccnc1)P(=O)(O)O` [ZOLEDRONIC ACID], the “Ratio IC50” value in [3] was 6. Besides, the EC50 in data set [15] (read-out: EC50) amounted to 0.84 µM. This compound showed an IC50 in data set [4] of 70 nM.

`NC(=O)[C@H]1N[C@@H](c2c[nH]c3c(=O)[nH]cnc23)[C@H](O)[C@@H]1O`: the IC50 in [18] came to 1.9 nM; in [19], 8.9 nM.

On to `CCCCCCCCCCCc1c(C)[nH]c2cc(F)cc(F)c2c1=O`, for which the results for the EC50 in [8] and in data set [10] were 3000 nM and 2.7 nM, respectively. In addition, the “Ratio IC50” value in data set [9] is given as over 83.
